# Earlier results in patent US20260335281A1, “PHARMACEUTICAL COMPOSITION COMPRISING CENTANAFADINE” (OTSUKA PHARMACEUTICAL CO., LTD., priority 2022, published 2026).
# Tests used:
# [1] = tested on: norepinephrine (NE) reuptake
# [2] = tested on: dopamine (DA) reuptake
# [3] = tested on: serotonin (5-HT) reuptake
# [4] = fold less than against norepinephrine reuptake, background statement
smiles,measurement,setting,value
"c1ccc2cc([C@]34CNC[C@H]3C4)ccc2c1 [(1R,5S)-1-(naphthalen-2-yl)-3-azabicyclo[3.1.0]hexane]",effectiveness against norepinephrine (NE) reuptake,"[1]; compared with DA and 5-HT reuptake, background statement",most effective
same,inhibition of norepinephrine reuptake,"[1]; in words, PL 1 (JP 5184354 B)",can inhibit the reuptake
same,"effectiveness against dopamine (DA) reuptake, fold less",[2]; [4],6 fold
same,inhibition of dopamine reuptake,"[2]; in words, PL 1 (JP 5184354 B)",can inhibit the reuptake
same,"effectiveness against serotonin (5-HT) reuptake, fold less",[3]; [4],14 fold
same,inhibition of serotonin reuptake,"[3]; in words, PL 1 (JP 5184354 B)",can inhibit the reuptake
